Laboratory results as given in patent US12540131B2 (Merck Sharp & Dohme LLC, priority 2019, dated 2026).

Target: GST tagged truncated human mutant G2019S LRRK2 (Homo sapiens (Human), UniProt Q5S007, G2019S)
Assay: LRRK2 Km ATP LanthaScreen Assay
Format: biochemical
Settings: G2019S LRRK2, 134 μM ATP (Km ATP), mean values; for IC50: read-out: LRRK2 pIC50 (converted)
Method in brief: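 Enzyme (GST-tagged, truncated) was preincubated with compound for 15 min at RT in 50 mM Tris pH 8.5, 10 mM MgCl2, 0.01% Brij-35, 1 mM EGTA, 2 mM DTT and 0.05 mM orthovanadate. Fluorescein-LRRKtide and 134 μM ATP (Km) were then added for 90 min. EDTA and Tb-anti-pERM antibody stopped the reaction; the TR-FRET 520/495 ratio gave 4-parameter IC50s, reported as mean pIC50.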

Chain of GST tagged truncated human mutant G2019S LRRK2 (Q5S007 970-2527 G2019S): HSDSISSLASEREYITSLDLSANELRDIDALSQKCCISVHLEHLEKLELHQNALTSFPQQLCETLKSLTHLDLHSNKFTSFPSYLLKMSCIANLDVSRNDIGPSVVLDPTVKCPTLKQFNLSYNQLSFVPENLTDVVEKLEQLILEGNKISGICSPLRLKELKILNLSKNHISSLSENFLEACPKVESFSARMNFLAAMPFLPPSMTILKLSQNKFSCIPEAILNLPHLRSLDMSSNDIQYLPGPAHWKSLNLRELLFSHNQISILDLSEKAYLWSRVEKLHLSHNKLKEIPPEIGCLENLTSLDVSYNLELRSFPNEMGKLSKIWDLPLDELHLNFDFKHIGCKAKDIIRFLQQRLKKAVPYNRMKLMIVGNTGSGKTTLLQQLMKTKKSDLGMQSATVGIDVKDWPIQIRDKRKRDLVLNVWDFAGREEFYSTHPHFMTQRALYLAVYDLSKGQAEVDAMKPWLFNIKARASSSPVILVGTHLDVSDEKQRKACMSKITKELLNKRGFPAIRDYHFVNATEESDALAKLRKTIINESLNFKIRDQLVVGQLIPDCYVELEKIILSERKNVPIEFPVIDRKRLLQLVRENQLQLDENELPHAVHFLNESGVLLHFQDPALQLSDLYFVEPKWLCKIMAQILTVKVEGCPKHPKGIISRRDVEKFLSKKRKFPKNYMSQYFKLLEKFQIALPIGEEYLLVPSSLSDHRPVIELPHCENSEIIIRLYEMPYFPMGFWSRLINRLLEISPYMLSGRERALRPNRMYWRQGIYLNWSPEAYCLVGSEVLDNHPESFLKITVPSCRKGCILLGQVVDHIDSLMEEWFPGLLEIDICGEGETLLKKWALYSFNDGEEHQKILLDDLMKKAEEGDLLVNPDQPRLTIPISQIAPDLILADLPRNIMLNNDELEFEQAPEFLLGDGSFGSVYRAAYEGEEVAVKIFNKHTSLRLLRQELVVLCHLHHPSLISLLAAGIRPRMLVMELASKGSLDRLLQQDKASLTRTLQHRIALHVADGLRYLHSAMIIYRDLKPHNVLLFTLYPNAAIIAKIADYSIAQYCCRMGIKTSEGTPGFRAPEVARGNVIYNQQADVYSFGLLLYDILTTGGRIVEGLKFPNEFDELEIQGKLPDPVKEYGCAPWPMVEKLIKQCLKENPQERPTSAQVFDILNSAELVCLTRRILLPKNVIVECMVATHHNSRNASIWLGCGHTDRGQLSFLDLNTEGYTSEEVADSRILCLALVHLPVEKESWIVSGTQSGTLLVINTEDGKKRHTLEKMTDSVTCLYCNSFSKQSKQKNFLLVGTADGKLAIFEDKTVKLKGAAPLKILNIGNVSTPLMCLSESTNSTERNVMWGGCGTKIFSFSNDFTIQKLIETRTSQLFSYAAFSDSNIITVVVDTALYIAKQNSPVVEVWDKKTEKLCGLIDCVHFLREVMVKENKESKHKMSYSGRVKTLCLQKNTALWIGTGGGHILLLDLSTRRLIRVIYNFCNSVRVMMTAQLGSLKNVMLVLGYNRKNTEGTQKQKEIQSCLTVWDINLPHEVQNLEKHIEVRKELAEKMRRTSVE

SMILES	LRRK2 pIC50	IC50 [nM]
F[C@@H]1CN(C2COC2)CC[C@H]1c1cc2nc(Nc3cnn(C4CC4)c3Cl)ncc2cc1Cl (single isomer, unassigned) [Ex-4.34, (3S,4S) or (3R,4R) 6-chloro-N-(5-chloro-1-cyclopropyl-1H-pyrazol-4-yl)-7-[3-fluoro-1-(oxetan-3-yl)piperidin-4-yl]quinazolin-2-amine]	9.12	
F[C@H]1CN(C2COC2)CC[C@@H]1c1cc2nc(Nc3cnn(C4CC4)c3Cl)ncc2cc1Cl (single isomer, unassigned) [Ex-4.35, (3S,4S) or (3R,4R) 6-chloro-N-(5-chloro-1-cyclopropyl-1H-pyrazol-4-yl)-7-[3-fluoro-1-(oxetan-3-yl)piperidin-4-yl]quinazolin-2-amine]	>9.20	
FC(F)Cn1ncc(Nc2ncc3cc(Cl)c([C@@H]4CCN(C5COC5)C[C@H]4F)cc3n2)c1Cl (single isomer, unassigned) [Ex-4.37, (3S,4S) or (3R,4R) 6-chloro-N-[5-chloro-1-(2,2-difluoroethyl)-1H-pyrazol-4-yl]-7-[3-fluoro-1-(oxetan-3-yl)piperidin-4-yl]quinazolin-2-amine]	9.15	
FC(F)Cn1ncc(Nc2ncc3cc(Cl)c([C@H]4CCN(C5COC5)C[C@@H]4F)cc3n2)c1Cl (single isomer, unassigned) [Ex-4.38, (3S,4S) or (3R,4R) 6-chloro-N-[5-chloro-1-(2,2-difluoroethyl)-1H-pyrazol-4-yl]-7-[3-fluoro-1-(oxetan-3-yl)piperidin-4-yl]quinazolin-2-amine]	9.11	
CN1CC[C@@H](c2cc3nc(Nc4cnn(C5CC5)c4Cl)ncc3cc2Cl)[C@H](F)C1 (single isomer, unassigned) [Ex-4.39, (3S,4S) or (3R,4R) 6-chloro-N-(5-chloro-1-cyclopropyl-1H-pyrazol-4-yl)-7-(3-fluoro-1-methylpiperidin-4-yl)quinazolin-2-amine]	>9.20	
CN1CC[C@H](c2cc3nc(Nc4cnn(C5CC5)c4Cl)ncc3cc2Cl)[C@@H](F)C1 (single isomer, unassigned) [Ex-4.40, (3S,4S) or (3R,4R) 6-chloro-N-(5-chloro-1-cyclopropyl-1H-pyrazol-4-yl)-7-(3-fluoro-1-methylpiperidin-4-yl)quinazolin-2-amine]	>9.20	
F[C@H]1CN(C2COC2)C[C@@H]1c1cc2nc(Nc3cnn(C4CC4)c3Cl)ncc2cc1Cl (single isomer, unassigned) [Ex-4.41, (3S,4R) or (3R,4S) 6-chloro-N-(5-chloro-1-cyclopropyl-1H-pyrazol-4-yl)-7-[4-fluoro-1-(oxetan-3-yl)pyrrolidin-3-yl]quinazolin-2-amine]	7.31	
F[C@@H]1CN(C2COC2)C[C@H]1c1cc2nc(Nc3cnn(C4CC4)c3Cl)ncc2cc1Cl (single isomer, unassigned) [Ex-4.42, (3S,4R) or (3R,4S) 6-chloro-N-(5-chloro-1-cyclopropyl-1H-pyrazol-4-yl)-7-[4-fluoro-1-(oxetan-3-yl)pyrrolidin-3-yl]quinazolin-2-amine]	7.21	
CC(C)(O)Cn1ncc(Nc2ncc3cc(Cl)c([C@@H]4CCN(C5COC5)C[C@H]4F)cc3n2)c1Cl (single isomer, unassigned) [Ex-4.43, (3S,4S) or (3R,4R) 1-[5-chloro-4-({6-chloro-7-[3-fluoro-1-(oxetan-3-yl)piperidin-4-yl]quinazolin-2-yl}amino)-1H-pyrazol-1-yl]-2-methylpropan-2-ol]	9.16	
CC(C)(O)Cn1ncc(Nc2ncc3cc(Cl)c([C@H]4CCN(C5COC5)C[C@@H]4F)cc3n2)c1Cl (single isomer, unassigned) [Ex-4.44, (3S,4S) or (3R,4R) 1-[5-chloro-4-({6-chloro-7-[3-fluoro-1-(oxetan-3-yl)piperidin-4-yl]quinazolin-2-yl}amino)-1H-pyrazol-1-yl]-2-methylpropan-2-ol]	>9.20	
CC1OCC1N1CCC(c2cc3nc(Nc4cnn(C5CC5)c4Cl)ncc3cc2Cl)CC1 (single isomer, unassigned) [Ex-4.46, (2R,3R) or (2S,3S) or (2S,3R) or (2R,3S) 6-chloro-N-(5-chloro-1-cyclopropyl-1H-pyrazol-4-yl)-7-[1-(2-methyloxetan-3-yl)piperidin-4-yl]quinazolin-2-amine]	9.13	
CC1OCC1N1CCC(c2cc3nc(Nc4cnn(C5CC5)c4Cl)ncc3cc2Cl)CC1 (single isomer, unassigned) [Ex-4.47, (2R,3R) or (2S,3S) or (2S,3R) or (2R,3S) 6-chloro-N-(5-chloro-1-cyclopropyl-1H-pyrazol-4-yl)-7-[1-(2-methyloxetan-3-yl)piperidin-4-yl]quinazolin-2-amine]	7.62	
Clc1cc2cnc(Nc3cnn(C4CC4)c3Cl)nc2cc1C1CCN(C2CCOC2)CC1 (single isomer, unassigned) [Ex-4.48, (S) or (R) 6-chloro-N-(5-chloro-1-cyclopropyl-1H-pyrazol-4-yl)-7-[1-(oxolan-3-yl)piperidin-4-yl]quinazolin-2-amine]		0.891
Clc1cc2cnc(Nc3cnn(C4CC4)c3Cl)nc2cc1C1CCN(C2CCOC2)CC1 (single isomer, unassigned) [Ex-4.49, (S) or (R) 6-chloro-N-(5-chloro-1-cyclopropyl-1H-pyrazol-4-yl)-7-[1-(oxolan-3-yl)piperidin-4-yl]quinazolin-2-amine]		< 0.631
Cc1cc(Nc2ncc3cc(Cl)c([C@@H]4CCN(C5COC5)C[C@H]4F)cc3n2)sn1 (single isomer, unassigned) [Ex-4.50, (3S,4S) or (3R,4R) 6-chloro-7-[3-fluoro-1-(oxetan-3-yl)piperidin-4-yl]-N-(3-methyl-1,2-thiazol-5-yl)quinazolin-2-amine]	>9.20	
Cc1cc(Nc2ncc3cc(Cl)c([C@H]4CCN(C5COC5)C[C@@H]4F)cc3n2)sn1 (single isomer, unassigned) [Ex-4.51, (3S,4S) or (3R,4R) 6-chloro-7-[3-fluoro-1-(oxetan-3-yl)piperidin-4-yl]-N-(3-methyl-1,2-thiazol-5-yl)quinazolin-2-amine]	>9.20	
Cc1cc(Nc2ncc3cc(Cl)c([C@H]4CCN(C)C[C@@H]4F)cc3n2)sn1 (single isomer, unassigned) [Ex-4.53, (3S,4S) or (3R,4R) 6-chloro-7-(3-fluoro-1-methylpiperidin-4-yl)-N-(3-methyl-1,2-thiazol-5-yl)quinazolin-2-amine]	>9.20	
CC(n1ncc(Nc2ncc3cc(Cl)c([C@@H]4CCN(C)C[C@H]4F)cc3n2)c1Cl)C(C)(C)O (single isomer, unassigned) [Ex-4.60, (R)(3S,4S) or (R)(3R,4R) or (S)(3S,4S) or (S)(3R,4R) 3-(5-chloro-4-{[6-chloro-7-(3-fluoro-1-methylpiperidin-4-yl)quinazolin-2-yl]amino}-1H-pyrazol-1-yl)-2-methylbutan-2-ol]	8.69	
CC(n1ncc(Nc2ncc3cc(Cl)c([C@@H]4CCN(C)C[C@H]4F)cc3n2)c1Cl)C(C)(C)O (single isomer, unassigned) [Ex-4.61, (R)(3S,4S) or (R)(3R,4R) or (S)(3S,4S) or (S)(3R,4R) 3-(5-chloro-4-{[6-chloro-7-(3-fluoro-1-methylpiperidin-4-yl)quinazolin-2-yl]amino}-1H-pyrazol-1-yl)-2-methylbutan-2-ol]	8.80	
CC(n1ncc(Nc2ncc3cc(Cl)c(C4CCN(C5COC5)CC4)cc3n2)c1Cl)C(C)(C)O (single isomer, unassigned) [Ex-4.62, (8) or (R) 3-[5-chloro-4-({6-chloro-7-[1-(oxetan-3-yl)piperidin-4-yl]quinazolin-2-yl}amino)-1H-pyrazol-1-yl]-2-methylbutan-2-ol]	>9.20	
Cc1c(Nc2ncc3cc(Cl)c([C@@H]4CCN(C5COC5)C[C@H]4F)cc3n2)cnn1CC(C)(C)O (single isomer, unassigned) [Ex-4.63, (3S,4S) or (3R,4R) 1-[4-({6-chloro-7-[3-fluoro-1-(oxetan-3-yl)piperidin-4-yl]quinazolin-2-yl}amino)-5-methyl-1H-pyrazol-1-yl]-2-methylpropan-2-ol]	8.83	
Cc1c(Nc2ncc3cc(Cl)c([C@H]4CCN(C5COC5)C[C@@H]4F)cc3n2)cnn1CC(C)(C)O (single isomer, unassigned) [Ex-4.64, (3S,4S) or (3R,4R) 1-[4-({6-chloro-7-[3-fluoro-1-(oxetan-3-yl)piperidin-4-yl]quinazolin-2-yl}amino)-5-methyl-1H-pyrazol-1-yl]-2-methylpropan-2-ol]	8.85	
CC(n1ncc(Nc2ncc3cc(Cl)c([C@@H]4CCN(C5COC5)C[C@H]4F)cc3n2)c1Cl)C(C)(C)O (single isomer, unassigned) [Ex-4.65, (R)(3S,4S) or (R)(3R,4R) or (S)(3S,4S) or (S)(3R,4R) 3-[5-chloro-4-({6-chloro-7-[3-fluoro-1-(oxetan-3-yl)piperidin-4-yl]quinazolin-2-yl}amino)-1H-pyrazol-1-yl]-2-methylbutan-2-ol]	8.91	
CC(n1ncc(Nc2ncc3cc(Cl)c([C@H]4CCN(C)C[C@@H]4F)cc3n2)c1Cl)C(C)(C)O (single isomer, unassigned) [Ex-4.66, (R)(3S,4S) or (R)(3R,4R) or (S)(3S,4S) or (S)(3R,4R) 3-(5-chloro-4-{[6-chloro-7-(3-fluoro-1-methylpiperidin-4-yl)quinazolin-2-yl]amino}-1H-pyrazol-1-yl)-2-methylbutan-2-ol]	8.70	
CC(n1ncc(Nc2ncc3cc(Cl)c(C4CCN(C5COC5)CC4)cc3n2)c1Cl)C(C)(C)O (single isomer, unassigned) [Ex-4.67, (S) or (R) 3-[5-chloro-4-({6-chloro-7-[1-(oxetan-3-yl)piperidin-4-yl]quinazolin-2-yl}amino)-1H-pyrazol-1-yl]-2-methylbutan-2-ol]		< 0.631
